Laboratory results from ChEMBL document CHEMBL1149896, “Abietane diterpenoids from Clerodendrum bungei” (J Nat Prod, 2008).

How the values were obtained:
HEK293 [1] = assay: Cytotoxicity against HEK293 cells after 48 hrs by MTT assay; format: cell-based; settings: Homo sapiens, HEK293, 48 h
B16 = assay: Cytotoxicity against mouse B16 cells after 48 hrs by MTT assay; format: functional, cell-based; settings: B16, 48 h
HGC-27 = assay: Cytotoxicity against human HGC27 cells after 48 hrs by MTT assay; format: functional, cell-based; settings: HGC-27, 48 h
HEK293 [2] = assay: Cell cycle arrest in HEK293 cells assessed as accumulation at S phase at 5 nM after 24 hrs by flow cytometry; format: functional, Homo sapiens
HEK293 [3] = assay: Cell cycle arrest in HEK293 cells assessed as accumulation at S phase at 5 uM after 24 hrs by flow cytometry; format: functional, Homo sapiens
HEK293 [4] = assay: Cell cycle arrest in HEK293 cells assessed as accumulation at G2/M phase at 10 uM after 24 hrs by flow cytometry; format: functional, Homo sapiens
HEK293 [5] = assay: Cell cycle arrest in HEK293 cells assessed as accumulation at G2/M phase at 0.5 uM after 24 hrs by flow cytometry; format: functional, Homo sapiens
HEK293 [6] = assay: Cell cycle arrest in HEK293 cells assessed as accumulation at G2/M phase at 2.5 uM after 24 hrs by flow cytometry; format: functional, Homo sapiens
HEK293 [7] = assay: Cell cycle arrest in HEK293 cells assessed as accumulation at G1 phase at 5 uM after 24 hrs by flow cytometry; format: functional, Homo sapiens
HEK293 [8] = assay: Cell cycle arrest in HEK293 cells assessed as accumulation at S phase at 0.5 uM after 24 hrs by flow cytometry; format: functional, Homo sapiens
HEK293 [9] = assay: Cell cycle arrest in HEK293 cells assessed as accumulation at G2/M phase at 5 nM after 24 hrs by flow cytometry; format: functional, Homo sapiens
HEK293 [10] = assay: Cell cycle arrest in HEK293 cells assessed as accumulation at S phase at 10 uM after 24 hrs by flow cytometry; format: functional, Homo sapiens
HEK293 [11] = assay: Cell cycle arrest in HEK293 cells assessed as accumulation at G1 phase at 10 uM after 24 hrs by flow cytometry; format: functional, Homo sapiens
HEK293 [12] = assay: Cell cycle arrest in HEK293 cells assessed as accumulation at S phase at 2.5 uM after 24 hrs by flow cytometry; format: functional, Homo sapiens
HEK293 [13] = assay: Cell cycle arrest in HEK293 cells assessed as accumulation at G1 phase at 2.5 uM after 24 hrs by flow cytometry; format: functional, Homo sapiens
HEK293 [14] = assay: Cell cycle arrest in HEK293 cells assessed as accumulation at G1 phase at 5 nM after 24 hrs by flow cytometry; format: functional, Homo sapiens
HEK293 [15] = assay: Cell cycle arrest in HEK293 cells assessed as accumulation at G1 phase at 0.5 […] after 24 hrs by flow cytometry; format: functional, Homo sapiens
HEK293 [16] = assay: Cell cycle arrest in HEK293 cells assessed as accumulation at G2/M phase at 5 uM after 24 hrs by flow cytometry; format: functional, Homo sapiens

**Q.** For `C[C@H](CO)c1cc2c(c(O)c1O[C@@H]1O[C@H](CO)[C@@H](O)[C@H](O)[C@H]1O)[C@@]1(C)CC[C@H](O[C@@H]3O[C@H](CO)[C@@H](O)[C@H](O)[C@H]3O)C(C)(C)[C@@H]1CC2`, which IC50 (HEK293 [1]) is on record?
**A.** > 10 µM

**Q.** What about the IC50 (B16) of the same molecule?
**A.** > 10 µM

**Q.** What about the IC50 (HGC-27) of the same molecule?
**A.** > 10 µM

**Q.** Which results are given for `CC1=C(C(=O)O)[C@@H]2CC(=O)c3cc(CC(C)O)c(O[C@@H]4O[C@H](CO)[C@@H](O)[C@H](O)[C@H]4O)c(O)c3[C@@]2(C)CC1` (some centres undefined)?
**A.** IC50 (HEK293 [1]): > 10 µM; IC50 (B16): > 10 µM; IC50 (HGC-27): > 10 µM

**Q.** `C[C@H](CO)c1cc2c(c(O)c1O[C@@H]1O[C@H](CO)[C@@H](O)[C@H](O)[C@H]1O)[C@@]1(C)CCC[C@](C)(CO[C@@H]3O[C@H](CO)[C@@H](O)[C@H](O)[C@H]3O)[C@@H]1CC2` was tested. Which IC50 (HEK293 [1]) did it give?
**A.** > 10 µM

**Q.** And the IC50 (B16)?
**A.** > 10 µM

**Q.** What about the IC50 (HGC-27) of the same molecule?
**A.** > 10 µM

**Q.** With `CC1=C(C)C2=CC(=O)c3c(c(O)c4oc(C)cc4c3O)[C@@]2(C)CC1=O` as the molecule, how does the IC50 (HEK293 [1]) read?
**A.** > 10 µM

**Q.** And the IC50 (B16)?
**A.** > 10 µM

**Q.** And the IC50 (HGC-27)?
**A.** > 10 µM

**Q.** With `CC1=C(C)C2=CC(=O)c3c(O)c4c(c(O)c3[C@@]2(C)CC1)OC(C)C4` (some centres undefined) as the molecule, how does the Activity (HEK293 [2]) read?
**A.** 33.72%

**Q.** What about the Activity (HEK293 [3]) of the same molecule?
**A.** 46.58%

**Q.** And the Activity (HEK293 [4])?
**A.** 34.88%

**Q.** And the Activity (HEK293 [5])?
**A.** 23.57%

**Q.** What about the Activity (HEK293 [6]) of the same molecule?
**A.** 16.12%

**Q.** And the Activity (HEK293 [7])?
**A.** 29.5%

**Q.** What about the Activity (HEK293 [8]) of the same molecule?
**A.** 31.01%

**Q.** What about the Activity (HEK293 [9]) of the same molecule?
**A.** 16.14%

**Q.** What about the Activity (HEK293 [10]) of the same molecule?
**A.** 42.62%

**Q.** What about the Activity (HEK293 [11]) of the same molecule?
**A.** 22.5%

**Q.** What about the Activity (HEK293 [12]) of the same molecule?
**A.** 40.45%

**Q.** What about the Activity (HEK293 [13]) of the same molecule?
**A.** 43.44%

**Q.** And the Activity (HEK293 [14])?
**A.** 50.14%

**Q.** And the IC50 (HEK293 [1])?
**A.** 1.2 µM

**Q.** What about the Activity (HEK293 [15]) of the same molecule?
**A.** 45.43%

**Q.** What about the IC50 (B16) of the same molecule?
**A.** 6.4 µM

**Q.** What about the IC50 (HGC-27) of the same molecule?
**A.** 5.3 µM

**Q.** What about the Activity (HEK293 [16]) of the same molecule?
**A.** 23.92%

**Q.** With `CC1=C(CO)C2=CC(=O)c3c(c(O)c4oc(C)cc4c3O)[C@@]2(C)CC1=O` as the molecule, how does the IC50 (HEK293 [1]) read?
**A.** > 10 µM

**Q.** What about the IC50 (B16) of the same molecule?
**A.** > 10 µM

**Q.** And the IC50 (HGC-27)?
**A.** > 10 µM

**Q.** What does the source list for `C[C@H](CO)c1cc2c(c(O)c1O[C@@H]1O[C@H](CO)[C@@H](O)[C@H](O)[C@H]1O)[C@@]1(C)CC[C@H](O)C(C)(C)[C@@H]1CC2`?
**A.** IC50 (HEK293 [1]): > 10 µM; IC50 (B16): > 10 µM; IC50 (HGC-27): > 10 µM

**Q.** For `C[C@H](CO)c1cc2c(c(O)c1O[C@@H]1O[C@H](CO)[C@@H](O)[C@H](O)[C@H]1O)[C@@]1(C)CCC[C@](C)(C(=O)O[C@@H]3O[C@H](CO)[C@@H](O)[C@H](O)[C@H]3O)[C@@H]1CC2`, which IC50 (HEK293 [1]) is on record?
**A.** > 10 µM

**Q.** What about the IC50 (B16) of the same molecule?
**A.** > 10 µM

**Q.** What about the IC50 (HGC-27) of the same molecule?
**A.** > 10 µM
